Experimental findings from ChEMBL document CHEMBL6134875, “Farnesyl Transferase Inhibitors as a Novel Strategy for Targeting KRAS-Dependent Cancers” (2025) are described below.

Common to all, as to type: functional
Experiment [1] deals with NCI-H2122. Kind of experiment: Antitumor activity against human NCI-H2122 cells harboring KRAS […] mutant xenografted in BALB/c nude mouse assessed as tumor growth inhibition at 100 mg/kg, po administered once daily and measured on day 27. Particulars: NCI-H2122, 648 h, time 27 day, read-out: TGI. For orientation: In xenograft studies the graft and the host belong to different species.

The test system of experiment [2] is NCI-H2122. In words: Antitumor activity against human NCI-H2122 cells harboring KRAS […] mutant xenografted in BALB/c nude mouse assessed as T/C ratio at 100 mg/kg, po administered once daily and measured on day 27 relative to control. The following applies: time 27 day.
In experiment [3] the test system is NCI-H2122. In words: Antitumor activity against human NCI-H2122 cells harboring KRAS […] mutant xenografted in BALB/c nude mouse assessed as tumor volume at 100 mg/kg, po administered once daily and measured on day 27 (reference value: 1559.54 +/- 225.48 mm3). The following applies: time 27 day.
The subject of experiment [4] is NCI-H2122. Kind of experiment: Antitumor activity against human NCI-H2122 cells harboring KRAS […] mutant xenografted in BALB/c nude mouse assessed as T/C ratio at 60 mg/kg, po administered once daily and measured on day 27 in presence of adagrasib relative to control. Particulars: time 27 day.
For experiment [5], the system named is NCI-H2122. Kind of experiment: Antitumor activity against human NCI-H2122 cells harboring KRAS […] mutant xenografted in BALB/c nude mouse assessed as tumor growth inhibition at 60 mg/kg, po administered twice daily and measured on day 27. Particulars: NCI-H2122, 648 h, time 27 day, read-out: TGI.
The subject of experiment [6] is NCI-H2122. Kind of experiment: Antitumor activity against human NCI-H2122 cells harboring KRAS […] mutant xenografted in BALB/c nude mouse assessed as T/C ratio at 60 mg/kg, po administered once daily and measured on day 27 in presence of sotorasib relative to control. The following applies: time 27 day.
Experiment [7] deals with NCI-H2122. In words: Antitumor activity against human NCI-H2122 cells harboring KRAS […] mutant xenografted in BALB/c nude mouse assessed as tumor volume at 60 mg/kg, po administered twice daily and measured on day 27 (reference value: 1559.54 +/- 225.48 mm3). Particulars: time 27 day.
Experiment [8] has as its system NCI-H2122. Kind of experiment: Antitumor activity against human NCI-H2122 cells harboring KRAS […] mutant xenografted in BALB/c nude mouse assessed as tumor volume at 60 mg/kg, po administered once daily and measured on day 27 in presence of sotorasib (reference value: 1559.54 +/- 225.48 mm3). The following applies: time 27 day.
The test system of experiment [9] is NCI-H2122. In words: Antitumor activity against human NCI-H2122 cells harboring KRAS […] mutant xenografted in BALB/c nude mouse assessed as tumor volume at 60 mg/kg, po administered once daily and measured on day 27 in presence of adagrasib (reference value: 1559.54 +/- 225.48 mm3). Particulars: time 27 day.
In experiment [10] the test system is NCI-H2122. In words: Antitumor activity against human NCI-H2122 cells harboring KRAS […] mutant xenografted in BALB/c nude mouse assessed as T/C ratio at 60 mg/kg, po administered twice daily and measured on day 27 relative to control. The following applies: time 27 day.
For experiment [11], the system named is NCI-H2122. Kind of experiment: Antitumor activity against human NCI-H2122 cells harboring KRAS […] mutant xenografted in BALB/c nude mouse assessed as tumor growth inhibition at 60 mg/kg, po administered once daily and measured on day 27 in presence of adagrasib. The following applies: NCI-H2122, 648 h, time 27 day, read-out: TGI.
In experiment [12] the test system is NCI-H2122. In words: Antitumor activity against human NCI-H2122 cells harboring KRAS […] mutant xenografted in BALB/c nude mouse assessed as tumor growth inhibition at 60 mg/kg, po administered once daily and measured on day 27 in presence of sotorasib. Particulars: NCI-H2122, 648 h, time 27 day, read-out: TGI.
For experiment [13], the system named is NCI-H2122. In words: Antitumor activity against human NCI-H2122 cells harboring KRAS […] mutant xenografted in BALB/c nude mouse assessed as T/C ratio at 15 mg/kg, po administered once daily and measured on day 27 in presence of adagrasib relative to control. Particulars: time 27 day.
For experiment [14], the system named is NCI-H2122. Kind of experiment: Antitumor activity against human NCI-H2122 cells harboring KRAS […] mutant xenografted in BALB/c nude mouse assessed as tumor growth inhibition at 15 mg/kg, po administered once daily and measured on day 27 in presence of adagrasib. Particulars: NCI-H2122, 648 h, time 27 day, read-out: TGI.
Experiment [15] relates to NCI-H2122. Kind of experiment: Antitumor activity against human NCI-H2122 cells harboring KRAS […] mutant xenografted in BALB/c nude mouse assessed as tumor volume at 15 mg/kg, po administered twice daily and measured on day 27 (reference value: 1559.54 +/- 225.48 mm3). Particulars: time 27 day.
In experiment [16] the test system is NCI-H2122. In words: Antitumor activity against human NCI-H2122 cells harboring KRAS […] mutant xenografted in BALB/c nude mouse assessed as T/C ratio at 15 mg/kg, po administered twice daily and measured on day 27 relative to control. Particulars: time 27 day.
In experiment [17] the test system is NCI-H2122. In words: Antitumor activity against human NCI-H2122 cells harboring KRAS […] mutant xenografted in BALB/c nude mouse assessed as tumor volume at 15 mg/kg, po administered once daily and measured on day 27 in presence of adagrasib (reference value: 1559.54 +/- 225.48 mm3). Particulars: time 27 day.
Experiment [18] relates to NCI-H2122. In words: Antitumor activity against human NCI-H2122 cells harboring KRAS […] mutant xenografted in BALB/c nude mouse assessed as tumor growth inhibition at 15 mg/kg, po administered twice daily and measured on day 27. Particulars: NCI-H2122, 648 h, time 27 day, read-out: TGI.

In general, T/C refers to the result in the treated group divided by that in the control group, in per cent. `C=C(F)C(=O)N1CCN(c2nc(OC[C@@H]3CCCN3C)nc3c2CCN(c2cccc4cccc(Cl)c24)C3)C[C@@H]1CC#N` [ADAGRASIB]: the inhibition in vivo at 100 mg/kg in [1] was 61.5%. In addition, the T/C in [2] stood at 38.49%. Also, the Activity in [3] is on record as 600.26 mm3.

For the compound `C=CC(=O)N1CCN(c2nc(=O)n(-c3c(C)ccnc3C(C)C)c3nc(-c4c(O)cccc4F)c(F)cc23)[C@@H](C)C1` [SOTORASIB], in experiment [1], the inhibition in vivo at 100 mg/kg turned out to be 58.8%. For the same compound, in experiment [3], the Activity is given as 643.34 mm3. The T/C in experiment [4] was found to be 41.25%.

For `Cn1cncc1[C@@](N)(c1ccc(Cl)cc1)c1ccc2c(c1)c(-c1cccc(Cl)c1)cc(=O)n2C` [TIPIFARNIB], the inhibition in vivo at 60 mg/kg stood at 35.9% in experiment [5], 88.6% in [11] and 85% in experiment [12]. Moreover, the T/C worked out at 14.99% in experiment [6], 11.38% in [4] and 64.15% in [10]. Further, the Activity in [7] is 1000.38 mm3; in experiment [8], 233.84 mm3; in experiment [9] it was 177.5 mm3.

In the case of `Cn1cncc1[C@@]1(N)c2ccc(C#N)c(c2)COc2cccc(c2)-c2cc(C#N)nc3ccc1cc23`, the T/C in [13] was 12%; in [16], 68.13%. The inhibition in vivo at 15 mg/kg was determined as 88% in experiment [14] and 31.9% in experiment [18]. In addition, the values for the Activity in experiment [15] and in [17] were 1062.47 mm3 and 187.07 mm3, respectively.
